Each compound was assayed on cultured human mast cells (CHMC) (assay: CHMC low cell density IgE activation: tryptase and LTC4 assays). Settings: Homo sapiens, Mast cell, Low Density CHMC, anti-IgE activation, tryptase readout; read-out: CHMC anti-IgE Tryptase.
Format: cell-based
Experimental: Pellet CHMC cells (980 rpm, 10 min) and resuspend in pre-warmed MT. Add 65 ul of cells to each 96-well plate. Depending on the degranulation activity for each particular CHMC donor, load 1000-1500 cells/well. Mix four times followed by a 1 hr incubation at 37° C. […] Stimulate cells by adding 25 ul of 6× anti-IgE solution to the appropriate plates. Add 25 ul MT to un-stimulated control wells. Mix twice following addition of the anti-IgE. Incubate at 37° C. for 30 minutes. […] Spin plates at 1000 rpm for 10 min to pellet cells. Transfer 25 ul of supernatant to a 96-well black bottom plate and add 100 ul of freshly diluted tryptase substrate solution to each well. Incubate plates at room temperature for 30 min.
Leukotriene C4 (LTC4) is also quantified using an ELISA kit on appropriately diluted supernatant samples (determined empirically for each donor cell population so that the sample measurement falls within the standard curve) following the supplier's instructions.

Row | Compound | IC50 [µM]
1 | Fc1cnc(NCCc2ccccc2)nc1Nc1ccc2c(c1)OCCO2 (racemic) [Compound R908697, (±)-N4-(3,4-Ethylenedioxyphenyl)-5-fluoro-N2-(2-phenylethyl)-2,4-pyrimidinediamine] | > 10
2 | Cc1ccc(N)cc1Nc1ncc(F)c(Nc2cc(N)ccc2C)n1 [Compound R950157, N2,N4-Bis(5-amino-2-methylphenyl)-5-fluoro-2,4-pyrimidinediamine] | > 10
3 | Nc1ccc(F)c(Nc2ncc(F)c(Nc3cc(N)ccc3F)n2)c1 [Compound R950158, N2,N4-Bis(5-amino-2-fluorophenyl)-5-fluoro-2,4-pyrimidinediamine] | 9.98
4 | CC(=O)c1cccc(Nc2ncc(F)c(Nc3cccc(C(C)=O)c3)n2)c1 [Compound R950376, N2,N4-Bis(3-methylcarbonylphenyl)-5-fluoro-2,4-pyrimidinediamine] | 2.54

Same assay, conditions: Homo sapiens, Mast cell, read-out: CHMC anti-IgE Tryptase

Row | Compound | IC50 [µM]
5 | O=[N+]([O-])c1ccc(F)c(Nc2ncc(F)c(Nc3cc([N+](=O)[O-])ccc3F)n2)c1 [Compound R950147, N2,N4-Bis(2-fluoro-5-nitrophenyl)-5-fluoro-2,4-pyrimidinediamine] | > 10
6 | COc1ccc([N+](=O)[O-])cc1Nc1ncc(F)c(Nc2cc([N+](=O)[O-])ccc2OC)n1 [Compound R950151, N2,N4-Bis(2-methoxy-5-nitrophenyl)-5-fluoro-2,4-pyrimidinediamine] | > 10
7 | O=[N+]([O-])c1cc(Nc2ccnc(Nc3ccc(F)c([N+](=O)[O-])c3)n2)ccc1F [Compound R950152, N2,N4-Bis(4-fluoro-3-nitrophenyl)-2,4-pyrimidinediamine] | 10
8 | Cc1ccc(Nc2ccnc(Nc3ccc(C)c([N+](=O)[O-])c3)n2)cc1[N+](=O)[O-] [Compound R950153, N2,N4-Bis(4-methyl-3-nitrophenyl)-2,4-pyrimidinediamine] | > 10
9 | O=[N+]([O-])c1ccc(O)c(Nc2ccnc(Nc3cc([N+](=O)[O-])ccc3O)n2)c1 [Compound R950155, N2,N4-Bis(2-hydroxy-5-nitrophenyl)-2,4-pyrimidinediamine] | > 10

Same assay, conditions: Low Density CHMC, anti-IgE activation, tryptase readout; read-out: CHMC anti-IgE Tryptase

Row | Compound | IC50 [µM]
10 | CCOC(=O)CNc1cccc(Nc2ncc(F)c(Nc3cccc(O)c3)n2)c1 [Compound R950216] | 0.327

The compounds below were run on cultured human mast cells (CHMC) (assay: CHMC low cell density ionomycin activation: tryptase assay). Settings: Homo sapiens, Mast cell, Low Density CHMC, ionomycin activation, tryptase readout; read-out: CHMC Ionomycin Tryptase.
Format: cell-based

Row | Compound | IC50 [µM]
11 | Fc1cnc(NCCc2ccccc2)nc1Nc1ccc2c(c1)OCCO2 (racemic) [Compound R908697, (±)-N4-(3,4-Ethylenedioxyphenyl)-5-fluoro-N2-(2-phenylethyl)-2,4-pyrimidinediamine] | > 10
12 | CCOc1ccc(Nc2ncc(F)c(Nc3ccc(OCC)cc3)n2)cc1 [Compound R070790, N2,N4-bis(4-ethoxyphenyl)-5-fluoro-2,4-pyrimidinediamine] | > 10
13 | COC(=O)c1cc2cc(Nc3ncc(F)c(Nc4ccc(OC)c(Cl)c4)n3)ccc2o1 [Compound R926950, N4-(3-Chloro-4-methoxyphenyl)-5-fluoro-N2-[2-(methoxycarbonyl)benzofuran-5-yl]-2,4-pyrimidinediamine] | > 10
14 | OCCOc1ccc(Nc2ncc(F)c(Nc3cccc(O)c3)n2)cc1 [Compound R935155, 5-Fluoro-N2-[4-(2-hydroxyethoxy)phenyl]-N4-(3-hydroxyphenyl)-2,4-pyrimidinediamine] | > 10
15 | COC(=O)c1cc(Nc2ncc(F)c(Nc3ccc(OC(F)(F)F)c(C(=O)OC)c3)n2)ccc1OC(F)(F)F [Compound R950391, N2,N4-Bis(3-methoxycarbonyl-4-trifluoromethoxyphenyl)-5-fluoro-2,4-pyrimidinediamine] | > 10

Same assay, conditions: Low Density CHMC, ionomycin activation, tryptase readout; read-out: CHMC Ionomycin Tryptase

Row | Compound | IC50 [µM]
16 | CNC(=O)COc1cccc(Nc2ncc(F)c(Nc3ccc4c(c3)C(=O)CCC4)n2)c1 [Compound R926947, 5-Fluoro-N4-(1,2,3,4-tetrahydro-1-oxonaphthalen-7-yl)-N2-[3-[(N-methylamino)carbonylmethyleneoxy]phenyl]-2,4-pyrimidinediamine] | > 10
17 | CNC(=O)Cn1ncc2cc(Nc3ncc(F)c(Nc4ccc(OC(C)C)cc4)n3)ccc21 [Compound R935239, 5-Fluoro-N4-(4-isopropoxyphenyl)-N2-[1-(N-methylaminocarbonyl)methyl-indazoline-5-yl]-2,4-pyrimidinediamine] | > 10
18 | CNC(=O)CNc1cccc(Nc2ncc(F)c(Nc3cccc(O)c3)n2)c1 [Compound R950218] | > 10
